Source: patent publication US10206907B2, “Compounds useful for the treatment of degenerative and inflammatory diseases” (GALAPAGOS NV, priority 2008, dated 2019)

How the values were obtained:
[1] = target: Recombinant human JAK1 catalytic domain (Homo sapiens (Human), UniProt P23458); test: JAK1 inhibition assay; format: biochemical; details: semi-quantitative score
Method in brief: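 Radiometric assay read by scintillation counting after phosphoric-acid washes. Percent inhibition calculated from cpm relative to vehicle and 10 μM staurosporine control. IC50 derived from compound dose-dilution series.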

[2] = test system: JAK-STAT signalling in HeLa cells; test: JAK-STAT signalling assay (OSM-triggered pSTAT1(2)-luciferase reporter in HeLa cells); format: cell-based; details: Homo sapiens; HeLa cells, OSM-triggered pSTAT1(2)-luciferase reporter; read-out: STAT signalling EC50
Experimental: HeLa cells were maintained in Dulbecco's Modified Eagle's Medium (DMEM) containing 10% heat inactivated fetal calf serum, 100 U/mL penicillin and 100 μg/mL streptomycin. HeLa cells were used at 70% confluence for transfection. 20,000 cells in 87 μL cell culture medium were transiently transfected with 40 ng pSTAT1(2)-luciferase reporter (Panomics), 8 ng of LacZ reporter as internal control reporter and 52 ng of pBSK using 0.32 μL Jet-PEI (Polyplus) as transfection reagent per well in 96-well plate format. After overnight incubation at 37° C., 10% CO2, transfection medium was removed.
40 μL of cell lysate was used to read β-galactosidase activity by adding 180 μL βGal solution (30 μl ONPG 4 mg/mL+150 μL β-Galactosidase buffer (0.06 M Na2HPO4, 0.04 M NaH2PO4, 1 mM MgCl2)) for 20 min.
Luciferase activity was measured using 40 μL cell lysate plus 40 μl of Steadylite® as described by the manufacturer (Perkin Elmer), on the Envision (Perkin Elmer).
The positive and negative controls were used to calculate z’ and ‘percent inhibition’ (PIN) values.
PIN values were plotted for compounds tested in dose-response and EC50 values were derived.

[3] = target: Recombinant human JAK2 catalytic domain (Homo sapiens (Human), UniProt O60674); test: JAK2 inhibition assay; format: biochemical; details: semi-quantitative score
Sequence of Recombinant human JAK2 catalytic domain (O60674 808-1132): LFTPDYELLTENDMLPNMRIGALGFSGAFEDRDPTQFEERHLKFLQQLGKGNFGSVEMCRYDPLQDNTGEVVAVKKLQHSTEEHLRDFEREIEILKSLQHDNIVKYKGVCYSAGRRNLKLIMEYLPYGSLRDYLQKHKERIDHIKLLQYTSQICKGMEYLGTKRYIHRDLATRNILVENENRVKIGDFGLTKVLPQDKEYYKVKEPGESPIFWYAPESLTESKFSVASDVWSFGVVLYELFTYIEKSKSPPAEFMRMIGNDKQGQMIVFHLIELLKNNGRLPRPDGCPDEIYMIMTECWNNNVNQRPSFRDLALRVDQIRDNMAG
Experimental: After 90 min at 30° C., reactions were stopped by adding of 25 μL/well of 150 mM phosphoric acid. […] Plates were washed 6 times with 300 μL per well of a 75 mM phosphoric acid solution and the bottom of the plates was sealed. 40 μL/well of Microscint-20 was added, the top of the plates was sealed and readout was performed using the Topcount (Perkin Elmer). Kinase activity was calculated by subtracting counts per minute (cpm) obtained in the presence of a positive control inhibitor (10 μM staurosporine) from cpm obtained in the presence of vehicle. The ability of a test compound to inhibit this activity was determined as: Percentage inhibition=((cpm determined for sample with test compound present−cpm determined for sample with positive control inhibitor) divided by (cpm determined in the presence of vehicle−cpm determined for sample with positive control inhibitor))*100%.
Dose dilution series were prepared for the compounds enabling the testing of dose-response effects in the JAK2 assay and the calculation of the IC50 for each compound.

Sequence of Recombinant human JAK1 catalytic domain (P23458 850-1154): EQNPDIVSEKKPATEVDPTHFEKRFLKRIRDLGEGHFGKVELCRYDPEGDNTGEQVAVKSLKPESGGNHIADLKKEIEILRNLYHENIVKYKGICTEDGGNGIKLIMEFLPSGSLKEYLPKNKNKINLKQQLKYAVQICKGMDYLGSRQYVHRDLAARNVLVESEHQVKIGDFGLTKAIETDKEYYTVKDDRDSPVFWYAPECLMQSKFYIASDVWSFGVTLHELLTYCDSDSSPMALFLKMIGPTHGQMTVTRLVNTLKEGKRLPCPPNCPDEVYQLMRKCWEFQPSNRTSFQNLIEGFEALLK

IC50 [1] [nM]	EC50 [2] [nM]	IC50 [3] [nM]	SMILES
< 100	> 1000		Cc1ccc(C(N)=O)cc1NCc1ccc(-c2cccc3nc(NC(=O)C4CC4)nn23)cc1 [Compound 249]
< 100	> 1000		O=C(NCc1ccc(-c2cccc3nc(NC(=O)C4CC4)nn23)cc1)C1CCC1 [Compound 268, Cyclobutanecarboxylic acid 4-[2-(cyclopropanecarbonyl-amino)-[1,2,4]triazolo[1,5-a]pyridin-5-yl]-benzylamide]
> 1000		> 1000	CC(=O)N(C)C1CN(Cc2ccc(-c3cccc4nc(NC(=O)C5CC5)nn34)cc2)C1 [Compound 283, Cyclopropanecarboxylic acid (5-{4-[3-(acetyl-methyl-amino)-azetidin-1-ylmethyl]-phenyl}-[1,2,4]triazolo[1,5-a]pyridin-2-yl)-amide]
101 to 500		> 1000	CCN(CC)C1CCN(C(=O)c2ccc(-c3cccc4nc(NC(=O)C5CC5)nn34)cc2)C1 (centres unmarked) [Compound 285, Cyclopropanecarboxylic acid {5-[4-(3-diethylamino-pyrrolidine-1-carbonyl)-phenyl]-[1,2,4]triazolo[1,5-a]pyridin-2-yl}-amide]
101 to 500		501 to 1000	O=C(Nc1nc2cccc(-c3ccc(C(=O)N4CCC(O)(c5ccccc5)CC4)cc3)n2n1)C1CC1 [Compound 286, Cyclopropanecarboxylic acid {5-[4-(4-hydroxy-4-phenyl-piperidine-1-carbonyl)-phenyl]-[1,2,4]triazolo[1,5-a]pyridin-2-yl}-amide]
101 to 500		> 1000	O=C(Nc1nc2cccc(-c3ccc(C(=O)N4CCCC(C(=O)N5CCCCC5)C4)cc3)n2n1)C1CC1 (centres unmarked) [Compound 290, Cyclopropanecarboxylic acid (5-{4-[3-(piperidine-1-carbonyl)-piperidine-1-carbonyl]-phenyl}-[1,2,4]triazolo[1,5-a]pyridin-2-yl)-amide]
101 to 500		> 1000	CCOC1CCN(C(=O)c2ccc(-c3cccc4nc(NC(=O)C5CC5)nn34)cc2)CC1 [Compound 294, Cyclopropanecarboxylic acid {5-[4-(4-ethoxy-piperidine-1-carbonyl)-phenyl]-[1,2,4]triazolo[1,5-a]pyridin-2-yl}-amide]
101 to 500		> 1000	CCN(CC)C(=O)C1CCCN(C(=O)c2ccc(-c3cccc4nc(NC(=O)C5CC5)nn34)cc2)C1 (centres unmarked) [Compound 295, 1-{4-[2-(Cyclopropanecarbonyl-amino)-[1,2,4]triazolo[1,5-a]pyridin-5-yl]-benzoyl}-piperidine-3-carboxylic acid diethylamide]
101 to 500		501 to 1000	CC(=O)NC1CCCN(C(=O)c2ccc(-c3cccc4nc(NC(=O)C5CC5)nn34)cc2)C1 (centres unmarked) [Compound 296, Cyclopropanecarboxylic acid {5-[4-(3-acetylamino-piperidine-1-carbonyl)-phenyl]-[1,2,4]triazolo[1,5-a]pyridin-2-yl}-amide]
> 1000		> 1000	CN(C)CC1CN(Cc2ccc(-c3cccc4nc(NC(=O)C5CC5)nn34)cc2)C1 [Compound 298, Cyclopropanecarboxylic acid {5-[4-(3-dimethylaminomethyl-azetidin-1-ylmethyl)-phenyl]-[1,2,4]triazolo[1,5-a]pyridin-2-yl}-amide]
501 to 1000		> 1000	CN(C)C(=O)C1CN(Cc2ccc(-c3cccc4nc(NC(=O)C5CC5)nn34)cc2)C1 [Compound 299, 1-{4-[2-(Cyclopropanecarbonyl-amino)-[1,2,4]triazolo[1,5-a]pyridin-5-yl]-benzyl}-azetidine-3-carboxylic acid dimethylamide]
> 1000		> 1000	O=C(Nc1nc2cccc(-c3ccc(CN4CC(N5CCOCC5)C4)cc3)n2n1)C1CC1 [Compound 300, Cyclopropanecarboxylic acid {5-[4-(3-morpholin-4-yl-azetidin-1-ylmethyl)-phenyl]-[1,2,4]triazolo[1,5-a]pyridin-2-yl}-amide]
101 to 500		> 1000	O=C(Nc1nc2cccc(-c3ccc(CN4CC[C@H](O)C4)cc3)n2n1)C1CC1 [Compound 305, Cyclopropanecarboxylic acid {5-[4-((S)-3-hydroxy-pyrrolidin-1-ylmethyl)-phenyl]-[1,2,4]triazolo[1,5-a]pyridin-2-yl}-amide]
101 to 500		> 1000	O=C(Nc1nc2cccc(-c3ccc(CN4CC[C@@H](O)C4)cc3)n2n1)C1CC1 [Compound 307, Cyclopropanecarboxylic acid {5-[4-((R)-3-hydroxy-pyrrolidin-1-ylmethyl)-phenyl]-[1,2,4]triazolo[1,5-a]pyridin-2-yl}-amide]
101 to 500		> 1000	CN1CCN(C(=O)NCc2ccc(-c3cccc4nc(NC(=O)C5CC5)nn34)cc2)CC1 [Compound 308, 4-Methyl-piperazine-1-carboxylic acid 4-[2-(cyclopropanecarbonyl-amino)-[1,2,4]triazolo[1,5-a]pyridin-5-yl]-benzylamide]
101 to 500		501 to 1000	O=C(Nc1nc2cccc(-c3ccc(CNC(=O)N4CCOCC4)cc3)n2n1)C1CC1 [Compound 309, Morpholine-4-carboxylic acid 4-[2-(cyclopropanecarbonyl-amino)-[1,2,4]triazolo[1,5-a]pyridin-5-yl]-benzylamide]
101 to 500		101 to 500	O=C1CN(Cc2ccc(-c3cccc4nc(NC(=O)C5CC5)nn34)cc2)CCN1 [Compound 311, Cyclopropanecarboxylic acid {5-[4-(3-oxo-piperazin-1-ylmethyl)-phenyl]-[1,2,4]triazolo[1,5-a]pyridin-2-yl}-amide]
101 to 500		101 to 500	O=C(Nc1nc2cccc(-c3ccc(CNC4CC4)cc3)n2n1)C1CC1 [Compound 312, Cyclopropanecarboxylic acid [5-(4-cyclopropylaminomethyl-phenyl)-[1,2,4]triazolo[1,5-a]pyridin-2-yl]-amide]
101 to 500		> 1000	CC1(C)CN(Cc2ccc(-c3cccc4nc(NC(=O)C5CC5)nn34)cc2)C1 [Compound 314, Cyclopropanecarboxylic acid {5-[4-(3,3-dimethyl-azetidin-1-ylmethyl)-phenyl]-[1,2,4]triazolo[1,5-a]pyridin-2-yl}-amide]
101 to 500		101 to 500	O=C(Nc1nc2cccc(-c3ccc(CN4CC(F)(F)C4)cc3)n2n1)C1CC1 [Compound 315, Cyclopropanecarboxylic acid {5-[4-(3,3-difluoro-azetidin-1-ylmethyl)-phenyl]-[1,2,4]triazolo[1,5-a]pyridin-2-yl}-amide]
101 to 500		101 to 500	O=C(Nc1nc2cccc(-c3ccc(CC(=O)N4CCC4)cc3)n2n1)C1CC1 [Compound 318, Cyclopropanecarboxylic acid {5-[4-(2-azetidin-1-yl-2-oxo-ethyl)-phenyl]-[1,2,4]triazolo[1,5-a]pyridin-2-yl}-amide]
101 to 500		101 to 500	CC1CC(C)CN(C(=O)Cc2ccc(-c3cccc4nc(NC(=O)C5CC5)nn34)cc2)C1 (centres unmarked) [Compound 320, Cyclopropanecarboxylic acid (5-{4-[2-(3,5-dimethyl-piperidin-1-yl)-2-oxo-ethyl]-phenyl}-[1,2,4]triazolo[1,5-a]pyridin-2-yl)-amide]
< 100	> 1000		COC1CN(C(=O)Cc2ccc(-c3cccc4nc(NC(=O)C5CC5)nn34)cc2)C1 [Compound 321, Cyclopropanecarboxylic acid (5-{4-[2-(3-methoxy-azetidin-1-yl)-2-oxo-ethyl]-phenyl} - [1,2,4]triazolo[1,5-a]pyridin-2 yl)-amide]
> 1000		> 1000	CC(=O)NC1CN(C(=O)Cc2ccc(-c3cccc4nc(NC(=O)C5CC5)nn34)cc2)C1 [Compound 322, Cyclopropanecarboxylic acid (5-{4-[2-(3-acetylamino-azetidin-1-yl)-2-oxo-ethyl]-phenyl}-[1,2,4]triazolo[1,5-a]pyridin-2-yl)-amide]
> 1000		> 1000	CN(C)C(=O)C1CN(C(=O)Cc2ccc(-c3cccc4nc(NC(=O)C5CC5)nn34)cc2)C1 [Compound 324, 1-(2-{4-[2-(Cyclopropanecarbonyl-amino)-[1,2,4]triazolo[1,5-a]pyridin-5-yl]-phenyl}-acetyl)-azetidine-3-carboxylic acid dimethylamide]
